Source: patent US20260335323A1, “CHIMERIC MOLECULE” (UCL Business Ltd, priority 2023, published 2026)

How the values were obtained:
LC3 = assay: Western blot, LC3I:LC3II ratio in PANC-1 cells; type: cell-based, human
Source text: (§1) FIG. 2. BL-918 is a potent ULK1 agonist and autophagy inducer (A) Representative images of PANC-1 cells stably expressing the mCherry-EGFP-LC3 tandem reporter treated with ULK1 agonists. Nuclei stained with Hoechst 33342, autophagosomes are shown in the EGFP channel and autolysosomes in the mCherry channel. Fold change in the number of autophagosomes (B) and autolysosomes (C) puncta in ULK1 agonist treated cells. (D) Western blot of PANC-1 cells treated with DMSO, bafilomycin and ULK1 agonists±bafilomycin; probed for p-ULK1 (S317), ULK1, p62, b-actin, LC3-I and LC3-II. Quantifications of western blot for changes in the ratio of p-ULK1 (S317):ULK1 (E), p62 (F) and LC31:LC3II (G). All data shown are mean±SEM, n=3, *p<0.05, ** p<0.01, one-way ANOVA with Dunnett's multiple comparisons test.
FIG. 4. ULKTACs retain ULK1 agonist activity and subsequent induction of autophagy (A) Western blot of PANC-1 cells treated with ULKTACs±bafilomycin, probed for p-ULK1 (S317), ULK1, p62, b-Actin, LC31 and LC3II. Quantifications of (A) for the pULK1:ULK1 ratio (B) LC3I:LC3II ratio (C) and changes in p62 (D). (E) Representative images of PANC-1 cells stably expressing the mCherry-EGFP-LC3 tandem reporter treated with ULKTACs w/or w/o bafilomycin. Nuclei stained with Hoechst 33342, autophagosomes are shown in the EGFP channel and autolysosomes in the mCherry channel. […]
Cells were homogenised in protein lysis buffer consisting of 0.1 M Tris pH 8.0, 0.1 M NaCl, 5% glycerol, IGEPAL® CA-630 (#18896. Sigma-Aldrich) and 5 mM EDTA, 0.1 M N-ethyl maleimide (ThermoFisher, #23030) and protease inhibitor (Cell Signalling Technologies, #5871). Protein concentrations were determined using the BCA assay to ensure equal loading. […]
(§2) Membranes were then incubated with horseradish peroxidase (HRP)-conjugated secondary antibodies (Rabbit #7074 and Mouse #7076) purchased from Cell Signalling Technologies for 1 hour and the HRP signal was detected using EZ-ECL Enhanced Chemiluminescence Detection Kit for HRP (#20-500-500, Sartorius), and imaged with an Alliance Q9 Advanced (UVITec). […]

ULK1 = molecular target: T1, ULK1 (Homo sapiens, UniProt O75385); assay: Western blot, phosphorylation of ULK1 at Ser317 in PANC-1 cells; type: cell-based; design: pSer317 blot or TOM20 co-localisation
T1 sequence (O75385 1-1050): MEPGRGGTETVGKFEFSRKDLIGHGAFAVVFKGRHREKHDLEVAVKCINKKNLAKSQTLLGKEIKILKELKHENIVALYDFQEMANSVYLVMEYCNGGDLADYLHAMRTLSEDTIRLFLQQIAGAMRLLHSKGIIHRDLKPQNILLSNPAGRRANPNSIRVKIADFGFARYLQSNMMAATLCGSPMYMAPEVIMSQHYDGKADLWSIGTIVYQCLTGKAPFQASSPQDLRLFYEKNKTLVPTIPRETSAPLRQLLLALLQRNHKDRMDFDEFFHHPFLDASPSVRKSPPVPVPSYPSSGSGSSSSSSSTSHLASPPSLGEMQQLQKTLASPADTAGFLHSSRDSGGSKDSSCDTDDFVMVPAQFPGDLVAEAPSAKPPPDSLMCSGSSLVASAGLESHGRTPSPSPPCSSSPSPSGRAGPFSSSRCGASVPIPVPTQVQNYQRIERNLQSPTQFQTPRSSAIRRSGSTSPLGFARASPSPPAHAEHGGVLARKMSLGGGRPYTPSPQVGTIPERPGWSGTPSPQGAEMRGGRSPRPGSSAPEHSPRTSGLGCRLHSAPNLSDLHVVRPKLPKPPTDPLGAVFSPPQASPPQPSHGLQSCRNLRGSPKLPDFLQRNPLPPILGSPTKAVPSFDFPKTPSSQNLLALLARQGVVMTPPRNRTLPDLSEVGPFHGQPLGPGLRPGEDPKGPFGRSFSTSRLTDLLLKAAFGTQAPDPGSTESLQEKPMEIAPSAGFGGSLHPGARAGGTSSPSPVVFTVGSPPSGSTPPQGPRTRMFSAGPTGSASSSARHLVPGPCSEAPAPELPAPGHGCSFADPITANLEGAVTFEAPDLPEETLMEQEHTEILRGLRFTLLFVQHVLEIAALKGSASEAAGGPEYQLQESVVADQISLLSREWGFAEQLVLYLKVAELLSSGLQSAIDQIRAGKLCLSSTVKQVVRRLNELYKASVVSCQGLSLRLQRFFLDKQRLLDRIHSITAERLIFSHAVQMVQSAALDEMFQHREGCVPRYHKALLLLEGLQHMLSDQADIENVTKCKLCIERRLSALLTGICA
Source text: as §1
FIG. 4. ULKTACs retain ULK1 agonist activity and subsequent induction of autophagy (A) Western blot of PANC-1 cells treated with ULKTACs±bafilomycin, probed for p-ULK1 (S317), ULK1, p62, b-Actin, LC31 and LC3II. Quantifications of (A) for the pULK1:ULK1 ratio (B) LC3I:LC3II ratio (C) and changes in p62 (D). (E) Representative images of PANC-1 cells stably expressing the mCherry-EGFP-LC3 tandem reporter treated with ULKTACs w/or w/o bafilomycin. Nuclei stained with Hoechst 33342, autophagosomes are shown in the EGFP channel and autolysosomes in the mCherry channel. Fold change in the number of autophagosome (F) and autolysosome (G) puncta. Data shown are mean±SEM, *p<0.05, ** p<0.01, *** p<0.001, one-way ANOVA, Dunnett's multiple comparisons test.
Cells were homogenised in protein lysis buffer consisting of 0.1 M Tris pH 8.0, 0.1 M NaCl, 5% glycerol, IGEPAL® CA-630 (#18896. Sigma-Aldrich) and 5 mM EDTA, 0.1 M N-ethyl maleimide (ThermoFisher, #23030) and protease inhibitor (Cell Signalling Technologies, #5871). Protein concentrations were determined using the BCA assay to ensure equal loading. […] The membranes were immunoblotted with primary antibodies, overnight at 4° C. ULK1 (D8H5) Rabbit mAb (#0854) [1:1000], Phospho-ULK1 (Ser 317) Rabbit antibody (#37762) [1:1000], LC3B Rabbit antibody (#2775) [1:1000], TOM20 (D8T4N) Rabbit mAb (#42406) [1:1000] and, Phospho-Ubiquitin (Ser 65) (E2J6T) Rabbit mAb (#62082) [1:500] were obtained from Cell Signalling Technologies. Recombinant Anti-Vinculin Rabbit antibody (EPR8185) (#ab129002) [1:5000] and Anti-Mitofusin2 mouse antibody (6A8) (#ab56889) [1:1000] were purchased from Abcam. […]
as §2

Compound | LC31: LC3II ratio (LC3) | activation of ULK1 and autophagy (overall) (ULK1) | phosphorylation of ULK1 at Ser317 (ULK1)
O=C(Nc1ccc(F)cc1F)[C@H](NC(=S)Nc1cc(C(F)(F)F)cc(C(F)(F)F)c1)c1ccccc1 [BL-918, reference compound] | increases in the LC31: LC3II ratio | potent activator of ULK1 and autophagy | induction of phosphorylation of ULK1 at Ser317
O=C(Nc1cc(C(F)(F)F)cc(C(F)(F)F)c1)N[C@@H](C(=O)Nc1ccc(F)cc1F)c1ccc(OCc2cn(CCOCCOCCNC(=O)C(=O)c3c(-c4ccccc4)[nH]c4ccccc34)nn2)cc1 [NZ-65, (R)-2-(3-(3,5-bis(trifluoromethyl)phenyl)ureido)-N-(2,4-difluorophenyl)-2-(4-((1-(2-(2-(2-(2-oxo-2-(2-phenyl-1H-indol-3-yl)acetamido)ethoxy)ethoxy)ethyl)-1H-1,2,3-triazol-4-yl)methoxy)phenyl) acetamide] | increases in the LC31: LC3II ratio |  | strong increase in phospho-Ser317 levels
O=C(Nc1cc(C(F)(F)F)cc(C(F)(F)F)c1)N[C@@H](C(=O)Nc1ccc(F)cc1F)c1ccc(OCc2cn(CCCCCCNC(=O)C(=O)c3c(-c4ccccc4)[nH]c4ccccc34)nn2)cc1 [NZ-66, (R)-2-(3-(3,5-bis(trifluoromethyl)phenyl)ureido)-N-(2,4-difluorophenyl)-2-(4-((1-(6-(2-oxo-2-(2-phenyl-1H-indol-3-yl)acetamido)hexyl)-1H-1,2,3-triazol-4-yl)methoxy)phenyl) acetamide] | increases in the LC31: LC3II ratio |  | strong increase in phospho-Ser317 levels
